Measurements from PubChem BioAssay (NCI).
“And” between values parts separate entries of the source, which are not always exact repeats. Equal values may be shown once.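 Where inhibition never reached the appropriate level, the endpoint shown equals the highest concentration tested. Otherwise, values were interpolated linearly from a five-concentration, 48-hour dose response in 96-well plates. GI50 is the concentration that inhibits growth by half. Definition used: TGI = concentration required for complete inhibition of growth.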

Key:
Test in all cases: inhibition of tumour cell growth, NCI panel, 48 h
[1] = system: MCF7 breast
[2] = system: SW-620 colon
[3] = system: HCC-2998 colon
[4] = system: SF-268 CNS
[5] = system: ACHN renal
[6] = system: SF-295 CNS
[7] = system: SF-539 CNS
[8] = system: HCT-116 colon
[9] = system: KM12 colon
[10] = system: MDA-MB-231 breast
[11] = system: OVCAR-4 ovarian
[12] = system: SK-MEL-5 melanoma
[13] = system: OVCAR-5 ovarian
[14] = system: DU-145 prostate
[15] = system: EKVX NSCLC
[16] = system: TK-10 renal
[17] = system: U251 CNS
[18] = system: SNB-19 CNS
[19] = system: NCI-H226 lung
[20] = system: SN12C renal
[21] = system: CAKI-1 renal
[22] = system: M14 melanoma
[23] = system: A549 NSCLC
[24] = system: SK-OV-3 ovarian
[25] = system: SNB-75 CNS
[26] = system: UACC-257 melanoma
[27] = system: HOP-92 NSCLC
[28] = system: IGROV1 ovarian
[29] = system: PC-3 prostate
[30] = system: RXF 393 renal
[31] = system: HL-60(TB) leukemia
[32] = system: HOP-62 NSCLC
[33] = system: MDA-N
[34] = system: A498 renal
[35] = system: HT29 colon
[36] = system: UO-31 renal
[37] = system: CCRF-CEM leukemia
[38] = system: NCI-H522 lung
[39] = system: SR leukemia
[40] = system: NCI/ADR-RES ovarian
[41] = system: HCT-15 colon
[42] = system: NCI-H23 lung
[43] = system: BT-549 breast
[44] = system: LOX IMVI melanoma
[45] = system: OVCAR-3 ovarian
[46] = system: HS 578T breast
[47] = system: RPMI-8226 leukemia
[48] = system: 786-0 renal
[49] = system: NCI-H460 lung
[50] = system: COLO 205 colon
[51] = system: MDA-MB-435
[52] = system: SK-MEL-2 melanoma
[53] = system: SK-MEL-28 melanoma
[54] = system: MALME-3M melanoma
[55] = system: T-47D breast
[56] = system: OVCAR-8 ovarian
[57] = system: MOLT-4 leukemia
[58] = system: K-562 leukemia
[59] = system: UACC-62 melanoma

Compound: CC(=N\N=C\c1ccccn1)/C(C)=N/N=C(C)/C(C)=N/N=C/c1ccccn1
- TGI [1]: > 100 µM
- TGI [2]: > 100 µM
- TGI [3]: > 100 µM
- TGI [4]: > 100 µM
- TGI [5]: > 100 µM
- TGI [6]: > 100 µM
- TGI [7]: > 100 µM
- TGI [8]: > 100 µM
- TGI [9]: > 100 µM
- TGI [10]: > 100 µM
- TGI [11]: > 100 µM
- TGI [12]: > 100 µM
- TGI [13]: > 100 µM
- TGI [14]: > 100 µM
- TGI [15]: > 100 µM
- TGI [16]: > 100 µM
- TGI [17]: > 100 µM
- TGI [18]: > 100 µM
- TGI [19]: > 100 µM
- TGI [20]: > 100 µM
- TGI [21]: > 100 µM
- TGI [22]: > 100 µM
- TGI [23]: > 100 µM
- TGI [24]: > 100 µM
- TGI [25]: > 100 µM
- TGI [26]: > 100 µM
- TGI [27]: > 100 µM
- TGI [28]: > 100 µM
- TGI [29]: > 100 µM
- TGI [30]: > 100 µM
- TGI [31]: > 100 µM
- TGI [32]: > 100 µM
- TGI [33]: > 100 µM
- TGI [34]: > 100 µM
- TGI [35]: > 100 µM
- TGI [36]: > 100 µM
- TGI [37]: > 100 µM
- TGI [38]: > 100 µM
- TGI [39]: > 100 µM
- TGI [40]: > 100 µM
- TGI [41]: > 100 µM
- TGI [42]: > 100 µM
- TGI [43]: > 100 µM
- TGI [44]: > 100 µM
- TGI [45]: > 100 µM
- TGI [46]: > 100 µM
- TGI [47]: > 100 µM
- TGI [48]: > 100 µM
- TGI [49]: > 100 µM
- TGI [50]: > 100 µM
- TGI [51]: > 100 µM
- TGI [52]: > 100 µM
- TGI [53]: > 100 µM
- TGI [54]: > 100 µM
- TGI [55]: > 100 µM
- TGI [56]: > 100 µM

Compound: CCCCCCCCCCCCCCCCOP(=O)(O)OP(=O)(O)OCC1OC(n2ccc(N)nc2=O)C(O)C1O (centres undefined)
- GI50 [1]: > 100 µM and 19.3 µM
- TGI [1]: > 100 µM
- TGI [2]: > 100 µM
- GI50 [3]: > 100 µM and 36.8 µM
- TGI [3]: > 100 µM
- TGI [57]: > 100 µM
- TGI [4]: > 100 µM
- TGI [5]: > 100 µM
- GI50 [6]: > 100 µM and 46 µM
- TGI [6]: > 100 µM
- TGI [7]: > 100 µM
- TGI [8]: > 100 µM
- TGI [9]: > 100 µM
- GI50 [58]: > 100 µM and 41.8 µM
- TGI [58]: > 100 µM
- TGI [10]: > 100 µM
- TGI [11]: > 100 µM
- TGI [12]: > 100 µM
- TGI [13]: > 100 µM
- TGI [14]: > 100 µM
- TGI [15]: > 100 µM
- TGI [16]: > 100 µM
- TGI [17]: > 100 µM
- GI50 [18]: > 100 µM and 23.8 µM
- TGI [18]: > 100 µM
- TGI [19]: > 100 µM
- GI50 [20]: > 100 µM and 19.4 µM
- TGI [20]: > 100 µM
- GI50 [21]: > 100 µM and 26.1 µM
- TGI [21]: > 100 µM
- TGI [22]: > 100 µM and 98.4 µM
- TGI [23]: > 100 µM
- GI50 [24]: > 100 µM and 48.7 µM
- TGI [24]: > 100 µM
- GI50 [25]: > 100 µM
- TGI [25]: > 100 µM
- TGI [26]: > 100 µM
- TGI [27]: > 100 µM
- TGI [28]: > 100 µM
- TGI [29]: > 100 µM
- TGI [30]: > 100 µM
- TGI [31]: > 100 µM
- TGI [32]: > 100 µM
- TGI [33]: > 100 µM
- GI50 [34]: > 100 µM
- TGI [34]: > 100 µM
- TGI [35]: > 100 µM
- GI50 [36]: > 100 µM and 21.8 µM
- TGI [36]: > 100 µM
- TGI [37]: > 100 µM
- GI50 [38]: > 100 µM
- TGI [38]: > 100 µM
- GI50 [59]: > 100 µM and 21.3 µM
- TGI [59]: > 100 µM
- TGI [39]: > 100 µM
- GI50 [40]: > 100 µM and 13.7 µM
- TGI [40]: > 100 µM
- TGI [41]: > 100 µM
- GI50 [42]: > 100 µM and 38 µM
- TGI [42]: > 100 µM
- TGI [43]: > 100 µM
- GI50 [44]: > 100 µM and 28.3 µM
- TGI [44]: > 100 µM
- TGI [45]: > 100 µM
- TGI [46]: > 100 µM
- TGI [47]: > 100 µM
- GI50 [48]: > 100 µM and 26.2 µM
- TGI [48]: > 100 µM
- TGI [49]: > 100 µM
- TGI [50]: > 100 µM
- TGI [51]: > 100 µM
- TGI [52]: > 100 µM
- TGI [53]: > 100 µM
- GI50 [54]: > 100 µM and 46.7 µM
- TGI [54]: > 100 µM
- TGI [55]: > 100 µM
- TGI [56]: > 100 µM

Compound: COC(=O)/C=C(\S/C(=N\n1cc(C(=O)OC)c(C(=O)OC)c1-c1ccc(C)cc1)c1ccc(C)cc1)C(=O)OC
- TGI [1]: 23.7 µM
- TGI [2]: 5.53 µM
- TGI [3]: 34 µM
- TGI [57]: > 100 µM
- TGI [4]: 40.4 µM
- TGI [5]: 5.78 µM
- TGI [6]: > 100 µM
- TGI [7]: 33 µM
- TGI [8]: 4.2 µM
- TGI [9]: 41.9 µM
- TGI [10]: 11.7 µM
- TGI [11]: 3.37 µM
- TGI [12]: 27.1 µM
- TGI [13]: 14.5 µM
- TGI [14]: 31.4 µM
- TGI [15]: 32.8 µM
- TGI [16]: 8.42 µM
- TGI [17]: 14.1 µM
- TGI [18]: > 61 µM
- TGI [19]: 3.5 µM
- TGI [20]: 11.8 µM
- TGI [22]: 11 µM
- TGI [23]: 51.8 µM
- TGI [24]: > 57.3 µM
- TGI [25]: 31.4 µM
- TGI [26]: 9.84 µM
- TGI [27]: 8.31 µM
- TGI [28]: 44.5 µM
- TGI [29]: 10.3 µM
- TGI [30]: 13.9 µM
- TGI [31]: 14.7 µM
- TGI [32]: 41.6 µM
- TGI [33]: 12.7 µM
- TGI [34]: 30 µM
- TGI [35]: 9.67 µM
- TGI [36]: 8.48 µM
- TGI [38]: 3.7 µM
- TGI [59]: 25.9 µM
- TGI [39]: 67.3 µM
- TGI [40]: 17.2 µM
- TGI [41]: 7.34 µM
- TGI [42]: 11.5 µM
- TGI [43]: 21.3 µM
- TGI [44]: 17 µM
- TGI [45]: 12.4 µM
- TGI [46]: 62.8 µM
- TGI [47]: 20.1 µM
- TGI [48]: 9.69 µM
- TGI [49]: > 56.6 µM
- TGI [50]: 6.61 µM
- TGI [51]: 13.5 µM
- TGI [52]: 15 µM
- TGI [53]: 12.5 µM
- TGI [54]: 13.9 µM
- TGI [55]: > 100 µM
- TGI [56]: 34.9 µM
